Among the data in US4839353A, “Anti-ulcer substituted pyridine derivatives” (Banyu Pharmaceutical Co., Ltd., priority 1986, dated 1989) are IC50 and ED50 values, retold here.

Structures are written as SMILES. Structures can show the parent of a compound that is named as a salt.

Assay [1] concerns the target T1, H^+,K^+ -ATPase (Oryctolagus cuniculus, UniProt P27112).
T1 construct: Rabbit gastric glands were homogenized and microsomal fractions were prepared; from tissue; host or cells: rabbit gastric glands, light microsomal membrane fraction
The assay is described as follows: Inhibitory effects on the activity of H^+,K^+ -ATPase. The class given is biochemical. The settings on record: H^+,K^+ -ATPase-containing light membrane fractions from rabbit gastric glands; read-out: 50% Enzyme inhibitory concentration (IC50). Here is the method: (1) Inhibitory effects on the activity of H^+,K^+ -ATPase Rabbit gastric glands were homogenized and microsomal fractions were prepared by differential centrifugation of the resultant homogenate. The microsomal fractions were layered on 37% sucrose and centrifuged to obtain light membrane fractions containing H^+,K^+ -ATPase. Using the H^+,K^+ -ATPase-containing fractions, the effects of the compounds of this invention and omeprazole on the activity of H^+,K^+ -ATPase were examined. The inhibitory activities of the compounds of this invention on H^+,K^+ -ATPase measured by the above method are shown in Table I.

Assay [2] concerns gastric ulcer induced by ethanol-hydrochloric acid. The assay is described as follows: Effect of preventing gastric ulcer induced by ethanol-hydrochloric acid. The settings on record: SD-strain male rats, oral, 30 min before 0.2N hydrochloric acid-50% ethanol (1 ml/rat); length of bleeding erosions; read-out: 50% Effective dose (ED50, mg/kg). In kind it is in vivo. Here is the method:
(3) Effect of preventing gastric ulcer induced by ethanol-hydrochloric acid According to the method of Robert et al. (see "Gastroenterology" 77, 433-443 (1979), SD-strain rats (male, weighing 200 to 220 g, 8 rats in each group) were deprived of food for 24 hours and of water for 19 hours. Each of the test compounds was suspended in 0.5% carboxymethyl cellulose, and orally administered to the rats. Thirty minutes after administration, 0.2N hydrochloric acid-50% ethanol (1 ml/rat) was orally administered. One hour after the administration of ethanol-hydrochloric acid, the rats were killed. The stomachs were dissected out, and the lower part of the esophagus was nipped with a clip. Aqueous 1% formalin solution (12.0 ml) was poured into the stomachs from the duodenum and then the duodenum part was nipped with a clip. The whole stomachs were immersed in aqueous 1% formalin for about 10 minutes for fixation. The stomachs were opened along the greater curvature and then rinsed with water. The gastric mucosa was examined and the lengths of bleeding erosions which occurred in the glandular stomach were measured in mm under an anatomic microscope. From the test results obtained by the above method, the ED50 (50% effective dose) of each of the test compounds was calculated.

The test system of assay [3] is gastric acid secretion. The experiment in a line: Gastric acid antisecretory activity (histamine-enhanced gastric acid secretion in anesthetized rats). As to conditions: Rattus norvegicus, iv, 1.25 h; male Doryu rats, urethane anesthesia, histamine infusion 2 mg/kg/hr, test compound via jugular vein 75 min after start of infusion; read-out: Gastric acid antisecretory activity 50% Effective dose (ED50, mg/kg). The class given is in vivo. The protocol: (2) Gastric acid antisecretory activity The method of preparation was based on the technique of Osumi et al. (see "Life Science" 20, 1407, 1977). Male Doryu rats weighing about 250 g were deprived of food for 24 hours but were allowed free access to water before experiments. […] The esophagus was ligated, and bilateral vagus nerves were carefully separated and cut at the cervical portion. The abdomen was opened by a midoline incinion, and a polyethylene cannula (about 3.5 cm in length and 0.4 cm in diameter) was inserted into the stomach via an incision in the duodenum. After washout of the stomach with saline, 2.0 ml of fresh saline prewarmed at 38° C. was instilled and replaced with fresh solution at 15 min intervals. Several successive collections of basal acid secretion were made to confirm the steady level of secretion. After these collections, gastric acid secretion was enhanced by infusion of histamine. Gastric acid secretion was determined as follows: the total value of gastric solution recovered from the stomach every 15 min was titrated to pH 7.0 with 0.1N NaOH, using an automatic titrator (Radiometer, Copenhage, Denmark). Acid output secreted for 15 min were calculated as microequivalents per 15 min. […] From the acid output in a control group measured at the time when the acid output secreted was lowest, the acid secretion inhibitory ratio (R) was calculated in accordance with the following equation. [formula] wherein V° is the acid output produced when the animals were not treated with the test compounds (control), and V is the acid output acid produced when the test compounds were administered to the animals. Furthermore, from correlation line between the dose and the inhibitory ratio at the dose by using the method of least squares, the 50% inhibitory dose was determined.

T1 sequence (P27112 2-1035 limits assumed): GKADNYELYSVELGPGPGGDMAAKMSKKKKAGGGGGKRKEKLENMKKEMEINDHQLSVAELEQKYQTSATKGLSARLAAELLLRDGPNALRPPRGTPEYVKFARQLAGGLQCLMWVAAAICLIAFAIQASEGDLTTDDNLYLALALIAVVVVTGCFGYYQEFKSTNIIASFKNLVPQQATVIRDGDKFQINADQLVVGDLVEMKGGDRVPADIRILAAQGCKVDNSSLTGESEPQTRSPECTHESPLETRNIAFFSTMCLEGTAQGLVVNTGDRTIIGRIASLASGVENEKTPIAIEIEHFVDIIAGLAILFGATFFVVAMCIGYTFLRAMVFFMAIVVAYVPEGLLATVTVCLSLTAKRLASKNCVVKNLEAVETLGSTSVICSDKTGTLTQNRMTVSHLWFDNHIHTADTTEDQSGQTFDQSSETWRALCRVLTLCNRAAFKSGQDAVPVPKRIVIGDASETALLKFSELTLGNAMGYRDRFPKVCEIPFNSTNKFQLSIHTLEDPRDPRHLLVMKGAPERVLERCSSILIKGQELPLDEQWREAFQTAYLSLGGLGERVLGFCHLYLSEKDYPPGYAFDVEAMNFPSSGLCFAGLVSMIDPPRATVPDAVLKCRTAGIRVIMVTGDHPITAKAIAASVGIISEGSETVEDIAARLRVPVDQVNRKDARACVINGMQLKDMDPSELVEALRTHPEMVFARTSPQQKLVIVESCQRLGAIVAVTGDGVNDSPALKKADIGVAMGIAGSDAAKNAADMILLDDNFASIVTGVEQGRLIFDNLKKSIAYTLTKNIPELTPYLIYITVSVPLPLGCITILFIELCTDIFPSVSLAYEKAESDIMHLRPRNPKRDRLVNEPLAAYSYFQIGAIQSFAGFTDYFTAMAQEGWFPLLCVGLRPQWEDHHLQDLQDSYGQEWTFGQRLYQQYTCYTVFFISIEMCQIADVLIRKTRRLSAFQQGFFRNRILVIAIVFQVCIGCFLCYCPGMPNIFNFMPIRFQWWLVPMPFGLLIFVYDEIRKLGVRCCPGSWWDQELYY
T1 sequence (P18597 whole entry partner): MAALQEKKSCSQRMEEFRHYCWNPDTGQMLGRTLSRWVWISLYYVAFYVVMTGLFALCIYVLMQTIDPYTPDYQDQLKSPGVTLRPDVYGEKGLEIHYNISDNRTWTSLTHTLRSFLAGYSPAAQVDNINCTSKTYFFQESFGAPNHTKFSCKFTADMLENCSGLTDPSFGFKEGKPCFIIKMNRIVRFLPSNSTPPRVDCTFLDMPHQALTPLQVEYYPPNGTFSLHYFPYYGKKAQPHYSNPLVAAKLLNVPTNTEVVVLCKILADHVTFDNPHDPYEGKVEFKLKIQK

In the case of `Cc1cnc(COc2ccccc2)cc1N1CCCCC1.Cl` [Test compound 1, 5-methyl-2-phenoxymethyl-4-piperidinopyridine hydrochloride], in assay [1], the IC50 is 8.4 µM. Also, in assay [2], the ED50 was determined as 12.1 mg/kg.

`Cc1cnc(CSc2ccccc2)cc1N1CCCCC1.Cl` [Test compound 5, 5-methyl-2-phenylthiomethyl-4-piperidinopyridine hydrochloride]: in assay [1], the IC50 worked out at 16 µM. The ED50 in assay [2] worked out at 9.2 mg/kg.

In the case of `Cc1cnc(CSc2ccc3ccccc3c2)cc1N1CCCCC1.Cl` [Test compound 6, 5-methyl-2-[(2-naphthyl)thiomethyl]-4-piperidinopyridine hydrochloride], the IC50 in assay [1] was 9 µM. Also, the ED50 in assay [2] was 7.3 mg/kg.

In the case of `Cc1cnc(/C=C\c2ccc(Cl)c3ccccc23)cc1N1CCCCC1.Cl` [Test compound 8, (Z)-2-[2-(4-chloro-1-naphthyl)vinyl]-5-methyl-4-piperidinopyridine hydrochloride], the IC50 in assay [1] was determined as 4.8 µM. Moreover, the ED50 in assay [3] came to 2.78 mg/kg.

As for `Cc1cnc(/C=C\c2cccc3c(C)cccc23)cc1N1CCCCC1` [Test compound 10, (Z)-2-[2-(5-methyl-1-naphthyl)vinyl]-5-methyl-4-piperidinopyridine hydrochloride], the IC50 in assay [1] was 6 µM.

As for `Cc1cnc(/C=C\c2cccc3cccc(C)c23)cc1N1CCCCC1` [Test compound 11, (Z)-2-[2-(8-methyl-1-naphthyl)vinyl]-5-methyl-4-piperidinopyridine], in assay [1], the IC50 was found to be 2.3 µM. In addition, the ED50 in assay [3] came to 0.92 mg/kg.

As to `Cc1cnc(/C=C\c2cccc3ccccc23)cc1N1CCC(C)CC1.Cl` [Test compound 14, (Z)-5-methyl-4-(4-methylpiperidino)-2-[2-(1-naphthyl)vinyl]pyridine hydrochloride], the IC50 in assay [1] turned out to be 2.8 µM. In assay [3], the ED50 was found to be 1.09 mg/kg.

On to `C(=C/c1cnccc1N1CCCCC1)/c1ccc2ccccc2c1` [Test compound 16, (Z)-3-[2-(2-naphthyl)vinyl]-4-piperidinopyridine], for which the IC50 in assay [1] is 2.6 µM.

Turning to `Cc1cnc(/C=C/c2ccc3ccccc3c2)cc1N1CCCCC1` [Test compound 17, (E)-5-methyl-2-[2-(2-naphthyl)vinyl]-4-piperidinopyridine hydrochloride], the IC50 in assay [1] stood at 4.3 µM.

As for `Cc1cnc(/C=C\c2ccc3ccccc3c2)cc1N1CCCCC1` [Test compound 18, (Z)-5-methyl-2-[2-(2-naphthyl)vinyl]-4-piperidinopyridine hydrochloride], in assay [1], the IC50 stood at 8.4 µM.

With `Cc1ccc2cc(/C=C\c3cc(N4CCCCC4)c(C)cn3)ccc2c1` [Test compound 19, (Z)-5-methyl-2-[2-(6-methyl-2-naphthyl)-vinyl]-4-piperidinopyridine], the IC50 in assay [1] worked out at 7.8 µM.

Take `Cc1cnc(/C=C\c2cccc(Cl)c2Cl)cc1N1CCCCC1` [Test compound 20, (Z)-2-[2-(2,3-dichlorophenyl)vinyl]-5-methyl-4-piperidinopyridine hydrochloride]: in assay [1], the IC50 came out at 4.6 µM.

Turning to `Cc1cnc(CCc2cccc3ccccc23)cc1N1CCC(C)CC1.Cl` [Test compound 21, 5-methyl-4-(4-methylpiperidino)-2-[2-(1-naphthyl)ethyl]pyridine hydrochloride], the IC50 in assay [1] came to 2.7 µM. Also, the ED50 in assay [3] was found to be 0.78 mg/kg.

Regarding `Cc1cnc(CCc2cccc3ccccc23)cc1N1CCCCC1` [Test compound 22, 5-methyl-2-[2-(1-naphthyl)ethy]-4-piperidinopyridine hydrochloride], the IC50 in assay [1] was found to be 3.6 µM. Moreover, the ED50 in assay [2] turned out to be 5.4 mg/kg; in assay [3] it was 2.5 mg/kg.

For the compound `Cc1cnc(CCc2ccc(C)c3ccccc23)cc1N1CCCCC1` [Test compound 23, 5-methyl-2-[2-(4-methyl-1-naphthyl)-ethyl]-4-piperidinopyridine hydrochloride], the IC50 in assay [1] worked out at 4.6 µM.

As for `Cc1cnc(CCc2cccc3cccc(C)c23)cc1N1CCCCC1.Cl` [Test compound 24, 5-methyl-2-[2-(8-methyl-1-naphthyl)-ethyl]-4-piperidinopyridine hydrochloride], the IC50 in assay [1] was determined as 6 µM. The ED50 in assay [3] amounted to 2.72 mg/kg.

Take `Cc1cnc(CCc2cccc3ccccc23)cc1OC1CCCCC1.Cl` [Test compound 25, 4-cyclohexyloxy-5-methyl-2-[2-(1-naphthyl)ethyl]pyridine hydrochloride]: the IC50 in assay [1] was determined as 2.6 µM. Further, the ED50 in assay [3] was found to be 0.91 mg/kg.

On to `Cc1cnc(CCc2cccc3ccccc23)cc1N1CCCC(C)C1.Cl` (stereo not drawn) [Test compound 26, 5-methyl-4-(3-methylpiperidino)-2-[2-(1-naphthyl)ethyl]pyridine hydrochloride], for which the IC50 in assay [1] turned out to be 1.7 µM. The ED50 in assay [3] is 0.91 mg/kg.

`Cc1cnc(CCc2ccccc2)cc1N1CCCCC1.Cl` [Test compound 27, 5-methyl-2-phenethyl-4-piperidinopyridine hydrochloride]: the ED50 in assay [2] is 5.4 mg/kg.

In the case of `Cc1cnc(CCc2ccc3ccccc3c2)cc1N1CCCCC1.Cl` [Test compound 28, 5-methyl-2-[2-(2-naphthyl)ethyl]-4-piperidinopyridine hydrochloride], the IC50 in assay [1] is 3 µM. Further, the ED50 in assay [2] is 3.6 mg/kg.

On to `Cc1ccc2cc(CCc3cc(N4CCCCC4)c(C)cn3)ccc2c1` [Test compound 29, 5-methyl-2-[2-(6-methyl-2-naphthyl)-ethyl]-4-piperidinopyridine hydrochloride], for which the IC50 in assay [1] was 2.3 µM.

Consider `Cc1cnc(COc2ccc(C(C)(C)C)cc2)cc1N1CCCCC1` [compound 2], for which, in assay [1], the IC50 worked out at 3.5 µM.

As to `CCC(C)c1ccc(OCc2cc(N3CCCCC3)c(C)cn2)cc1` (stereo not drawn) [compound 3], in assay [1], the IC50 came out at 4.1 µM.

Consider `Cc1cnc(COc2ccc(C3CCCCC3)cc2)cc1N1CCCCC1` [compound 4], for which the IC50 in assay [1] is 3.8 µM.

As to `Cc1cnc(/C=C\c2cccc3ccccc23)cc1N1CCCCC1` [compound 7], the IC50 in assay [1] is 2.2 µM. Also, the ED50 in assay [3] came to 1.16 mg/kg.

As to `Cc1cnc(/C=C\c2ccc(F)c3ccccc23)cc1N1CCCCC1` [compound 9], the IC50 in assay [1] stood at 5.9 µM.

As for `Cc1cnc(/C=C\c2cccc3ccccc23)cc1OC1CCCCC1` [compound 12], the IC50 in assay [1] was found to be 3.5 µM. For the same compound, in assay [3], the ED50 came to 1.35 mg/kg.

Take `Cc1cnc(/C=C\c2cccc3ccccc23)cc1N1CCCCCC1` [compound 13]: the IC50 in assay [1] came out at 0.78 µM. Moreover, the ED50 in assay [3] amounted to 0.9 mg/kg.

On to `Cc1cnc(/C=C\c2cccc3ccccc23)cc1N1CCCC(C)C1` (stereo not drawn) [compound 15], for which the IC50 in assay [1] worked out at 1.7 µM. In assay [3], the ED50 came to 0.99 mg/kg.

As to `COc1ccc2[nH]c([S+]([O-])Cc3ncc(C)c(OC)c3C)nc2c1` (stereo not drawn) [omeprazole, reference compound], in assay [1], the IC50 is 6.2 µM. In addition, in assay [2], the ED50 is 34.1 mg/kg.
